Where two headings read alike, the source gives them in different places.
What was measured:
[1] = system: SARS-COV-2 RNA G4, position 1574 (NsP2); experiment: CD thermal melting analysis, G4 No. 4; assay type: binding; settings: G4 No. 4, position 1574, NsP2; 15 μM RNA G4, 30 μM compound
Experimental: (§1) For melting, the samples were heated at 25 to 95° C. at 2° C./min with a data pitch of 0.5° C. CD melting analyses were performed with and without G4-binding compounds. The ratio of RNA: G4-binding compound was set to a molar ratio of 1:2. 15 μM RNA G4 was treated with 30 μM G4-binding compound and incubated at room temperature in a buffer comprising 10 mM Tris-HCl (pH 7.5) and 100 mM KCl for 30 minutes. Ellipticity was measured at 265 nm. Thereafter, data were normalized and plotted in OriginPro 2017 to calculate Tm values.
(§2) In addition, 15 μM RNA G4 was treated with 30 μM compound and incubated, and a CD thermal melting curve of RNA G4 (15 μM) was obtained in the presence or absence of the G4-binding compound. Furthermore, the effect of G4-binding compounds on the stability of SARS-COV-2 G4 was confirmed by measuring the difference in melting temperature (ΔTm). The results are illustrated in FIGS. 6A and 6B.

[2] = system: SARS-COV-2 RNA G4, position 4162 (NsP3); experiment: CD thermal melting analysis, G4 No. 7; assay type: binding; settings: G4 No. 7, position 4162, NsP3; 15 μM RNA G4, 30 μM compound
Experimental: as §1, §2

[3] = system: SARS-COV-2 RNA G4, position 15448 (NsP12); experiment: CD thermal melting analysis, G4 No. 14; assay type: binding; settings: G4 No. 14, position 15448, NsP12; 15 μM RNA G4, 30 μM compound
Experimental: as §1, §2

[4] = system: SARS-COV-2 RNA G4, position 24215 (Surface glycoprotein); experiment: CD thermal melting analysis, G4 No. 17; assay type: binding; settings: G4 No. 17, position 24215, Surface glycoprotein; 15 μM RNA G4, 30 μM compound
Experimental: as §1, §2

[5] = system: SARS-COV-2 RNA G4, position 24268 (Surface glycoprotein); experiment: CD thermal melting analysis, G4 No. 18; assay type: binding; settings: G4 No. 18, position 24268, Surface glycoprotein; 15 μM RNA G4, 30 μM compound
Experimental: as §1, §2

[6] = system: SARS-COV-2 RNA G4, position 28781 (Nucleocapsid protein); experiment: CD thermal melting analysis, G4 No. 22; assay type: binding; settings: G4 No. 22, position 28781, Nucleocapsid protein; 15 μM RNA G4, 30 μM compound
Experimental: as §1, §2

[7] = system: SARS-COV-2 RNA G4, position 28903 (Nucleocapsid protein); experiment: CD thermal melting analysis, G4 No. 23; assay type: binding; settings: G4 No. 23, position 28903, Nucleocapsid protein; 15 μM RNA G4, 30 μM compound
Experimental: as §1, §2

HCoV-OC43 = HCoV-OC43 dose response curve analysis, virion production (plaque assay), HCT-8 cells; assay type: cell-based; settings: Betacoronavirus 1, OC43, 0.05 MOI, 72 hours after infection
HEK293T cells = experiment: Cell viability analysis (EZ Cytox), HEK293T cells; assay type: cell-based, Human; settings: up to 75 μM
Experimental: (§3) Human embryonic kidney (HEK293T) cells and Vero cells were maintained in high-glucose Dulbecco's Modified Eagle's Medium (DMEM) supplemented with 10% fetal bovine serum (FBS) and 1% penicillin-streptomycin, and cultured in a humidified incubator at 37° C. and 5% CO2.
(§4) Cytotoxicity was analyzed using an EZ Cytox assay kit (DogenBio, Korea). HEK293T and Vero cells were put into a 96-well plate at a density of 2×10^4 cells/well in a medium volume of 100 μl/well and cultured at 37° C. for 24 hours. After 24 hours, the cells were treated with the G4-binding compound at various concentrations (0.1, 0.5, 1, 2.5, 5.5, 7.5, 10, 25, 50, and 75 μM) and cultured at 37° C. for 24 hours or 48 hours. Cell viability (%) was calculated by measuring the absorbance value at 455 nm (Luminescence multi-mode microplate reader Synergy™ Neo2) and using the following Equation 1. All experiments were performed in triplicate, and cells untreated with the compound were used as a control. DMEM with the EZ Cytox reagent was used as a blank.
(§5) The toxicity of PDS and PhenDC3 was confirmed in HEK293T cells and Vero cells. The results are illustrated in FIGS. 7A to 7D.

Vero cells = experiment: Cell viability analysis (EZ Cytox), Vero cells; assay type: cell-based; settings: up to 75 μM after 48 hours
Experimental: as §3, §4, §5

N1-WT-G4-353 (Nsp1 G4) = experiment: In-vitro transcription/translation (IVT) analysis, EYFP reporter western blot, N1-WT-G4-353; assay type: biochemical, SARS-COV-2
N1-WT-G4-3467 (Nsp3 G4) = experiment: In-vitro transcription/translation (IVT) analysis, EYFP reporter western blot, N1-WT-G4-3467; assay type: biochemical, SARS-COV-2; settings: N1-WT-G4-3467, compound at 15 to 50 μM
N1-Mut-G4-3467 = assay type: biochemical, SARS-COV-2; settings: N1-Mut-G4-3467, 5, 15, 25 and 50 μM
SARS-COV-2 [8] = experiment: microbe, parasite or virus in culture; assay type: cell-based; settings: Severe acute respiratory syndrome coronavirus 2; Vero cells, 0.0125 MOI, 24 hours; read-out: IC50, suppressing SARS-COV-2 infection (N protein expression)
SARS-COV-2 [9] = experiment: microbe, parasite or virus in culture; assay type: cell-based; settings: Severe acute respiratory syndrome coronavirus 2, Vero cells, read-out: IC50, virion production

SMILES | Tm in ° C. with compound [2] [°C] | ΔTm [2] [°C] | Tm in ° C. with compound [3] [°C] | ΔTm [3] [°C] | Tm in ° C. with compound [4] [°C] | ΔTm [4] [°C] | Tm in ° C. with compound [5] [°C] | ΔTm [5] [°C] | Tm in ° C. with compound [7] [°C] | ΔTm [7] [°C] | further results
CN1CCC[C@H]1CCNC(=O)c1cn2c3c(c(N4CCC(c5cnccn5)C4)c(F)cc3c1=O)Oc1cc3ccccc3cc1-2 (stereo partly drawn) [CX-3543, 15-fluoro-N-[2-[(2S)-1-methylpyrrolidin-2-yl]ethyl]-18-oxo-14-(3-pyrazin-2-ylpyrrolidin-1-yl)-12-oxa-1-azapentacyclo [11.7.1.0^2,11.0^4,9.0^17,21]henicosa-2,4,6,8, 10, 13 (21), 14,16,19-nonaene-19-carboxamide] | 58.94 | 2.05 | 58.58 | 5.96 | 57.16 | 1.74 | 40.42 | −0.05 | 63.45 | 6.34 | Tm in ° C. with compound [1]: 53.43 °C; ΔTm [1]: 0.05 °C; Tm in ° C. with compound [6]: 82.9 °C; ΔTm [6]: 18.2 °C; IC50 (HCoV-OC43): 1.4 µM
NCCOc1cc(C(=O)Nc2cc(OCCN)c3ccccc3n2)nc(C(=O)Nc2cc(OCCN)c3ccccc3n2)c1 [PDS, 4-(2-aminoethoxy)-N2,N6-bis(4-(2-aminoethoxy)quinolin-2-yl)pyridine-2,6-dicarboxamide] | 56.03 | −0.86 | 56.5 | 3.88 | 62.93 | 7.51 | 46.11 | 5.64 | 60.46 | 3.35 | cytotoxicity in HEK293T cells (HEK293T cells): safe to use; cytotoxicity in Vero cells (Vero cells): no cytotoxicity was observed; EYFP expression reduced by (N1-WT-G4-353 (Nsp1 G4); N1-WT-G4-353, compound at 50 μM): 65%; suppressing EYFP reporter expression (N1-WT-G4-353 (Nsp1 G4); N1-WT-G4-353, concentrations less than 50 μM): not effective; EYFP expression suppressed by (N1-WT-G4-3467 (Nsp3 G4)): 60%; EYFP expression, concentration-dependent suppression (N1-Mut-G4-3467): not suppressed; IC50 (SARS-COV-2 [8]): 9.45 µM; IC50 (SARS-COV-2 [9]; 24 hours after infection): 1.45 µM; IC50 (SARS-COV-2 [9]; 48 hours after infection): 2.77 µM
